The values below come from patent US20080182908A1, “PHARMACEUTICAL COMPOSITIONS COMPRISING MEMANTINE” (priority 2007, published 2008).

The test system of data set [1] is NMDA (N-methyl-D-aspartate) receptor. The note with it: noncompetitive NMDA receptor antagonist; cited from earlier work.
Data set [2] is described as follows: Physicochemical properties of the active ingredient (density, flow, particle size distribution). The note with it: active ingredient used in Example 1. From the text:
The different physicochemical properties of the active ingredient as well as excipients are to be considered, as these properties affect processing and the formulation properties of the compositions. Various physicochemical properties include, but are not limited to, particle size of the active ingredient, density (including bulk density and tapped density), compressibility index, Hausner's ratio, angle of repose, etc. The percentages of particles with different sizes that exist in a total powder, is the particle size distribution. It is represented in certain ways. Particle size is the maximun dimension of a particle, frequently expressed in micrometers. Particle size distributions can be expressed in terms of D10, D50, D90 and D[4,3]. The D10, D50 and D90 represent the 10th, median or the 50th percentile, and the 90th percentile of the particle size distribution, respectively, as measured by volume. That is, the D10, D50, D90 are values of the distribution such that 10%, 50%, and 90% of the particles have a size of this value or less […]. D50 also known as median diameter of particles. It is one of the important parameters representing characteristics of particle of powder. For a sample, if D50=5 μm, it means that 50% of the particles are smaller than 5 μm. Similarly, if D10=5 μm, 10% of the particles are less than or equal to 5 μm and if D90=5 μm, 90% of the particles have sizes less than or equal to 5 μm. D[4,3] is the volume moment mean of the particles or the volume weighted particle size.

The conditions of data set [3]: cited from earlier work.

SMILES strings stand for the structures. Structures can show the parent of a compound that is named as a salt.

On to `C[C@]12CC3C[C@](C)(C1)C[C@@](N)(C3)C2` [Memantine, 1-amino-3,5-dimethyladamantane], for which, in data set [1], the “Affinity for the receptor” value is “low to moderate affinity” and the Blocking/unblocking kinetics result is listed as “rapid blocking/unblocking kinetics”.

As for `CC12CC3CC(C)(C1)CC(N)(C3)C2` [memantine hydrochloride], in data set [2], the Bulk density came to 0.317 g/mL, the Compressibility index was found to be 31.83, the “Hauser's ratio” value amounted to 1.467 and the “Particle size distribution: D(10)” value was 10.744 μm. In addition, in data set [2], the “Particle size distribution: D(50)” value was 60.545 μm, the “Particle size distribution: D(90)” value was 210.482 μm and the Tapped density was determined as 0.465 g/mL. Also, in data set [3], the Solubility in water entry was “highly soluble in water”.
